{"source": "paper PMC4633474", "about": "“Kinetic properties and stability of glucose dehydrogenase from Bacillus amyloliquefaciens SB5 and its potential for cofactor regeneration” (AMB Express, 2015)", "biological_target": "T1, GluDH-BS (Bacillus subtilis, UniProt P12310)", "T1 construct": "gene gdh; full length, plasmid pHGBS, overexpressed in B. subtilis 168 (strain BS), crude cell-free extract", "T1 sequence (P12310 whole entry)": "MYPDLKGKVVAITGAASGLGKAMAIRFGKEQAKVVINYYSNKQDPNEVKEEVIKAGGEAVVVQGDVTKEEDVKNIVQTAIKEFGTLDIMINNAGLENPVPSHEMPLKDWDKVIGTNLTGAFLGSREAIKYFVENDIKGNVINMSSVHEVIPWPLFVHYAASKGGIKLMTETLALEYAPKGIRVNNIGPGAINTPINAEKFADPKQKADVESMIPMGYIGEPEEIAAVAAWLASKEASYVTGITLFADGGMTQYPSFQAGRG", "experiment": "NADPH formation at […] nm, crude extract", "type": "biochemical", "conditions": "glucose, CPB buffer, 37 °C; turnover only"}
{"smiles": "NC(=O)c1ccc[n+]([C@@H]2O[C@H](COP(=O)(O)OP(=O)(O)OC[C@H]3O[C@@H](n4cnc5c(N)ncnc54)[C@H](OP(=O)(O)O)[C@@H]3O)[C@@H](O)[C@H]2O)c1", "note": "[NADP^+]", "values": [{"measurement": "NADPH formation at 340 nm, crude extract", "value": "crude GluDH-BS (closed circle) and GluDH-BA (open circle) when using NADP^+ as a cofactor"}]}
